Measured values: US8329918B2, “Selective alpha 2B/2C agonists” (priority 2009, dated 2012)
Where two headings read alike, the source gives them in different places.

Columns and labels:
alpha2B receptor = target: T1, alpha2B receptor (Homo sapiens, UniProt P18089); assay: RSAT assay, alpha 2B; assay type: cell-based; settings: for (rel. efficacy) Alpha 2B: ratio of maximal effect to standard full agonist brimonidine (UK14304)
T1 construct: expressed in transfected cells; host or cells: NIH-3T3
T1 sequence (P18089 1-450): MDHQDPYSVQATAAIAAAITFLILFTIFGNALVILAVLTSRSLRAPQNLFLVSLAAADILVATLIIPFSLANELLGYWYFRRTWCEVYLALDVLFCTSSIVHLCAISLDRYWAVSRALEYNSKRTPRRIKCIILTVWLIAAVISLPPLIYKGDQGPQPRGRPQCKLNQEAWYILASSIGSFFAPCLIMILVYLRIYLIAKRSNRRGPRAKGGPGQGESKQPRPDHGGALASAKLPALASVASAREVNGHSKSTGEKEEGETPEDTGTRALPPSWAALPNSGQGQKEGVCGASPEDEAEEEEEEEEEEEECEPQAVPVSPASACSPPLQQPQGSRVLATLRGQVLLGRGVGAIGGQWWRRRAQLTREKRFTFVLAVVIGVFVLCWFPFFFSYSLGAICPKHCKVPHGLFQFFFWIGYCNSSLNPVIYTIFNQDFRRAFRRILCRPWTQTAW
Protocol: (§1) Selected presently described compounds were synthesized and tested for alpha adrenergic activity using the Receptor Selection and Amplification Technology (RSAT) assay. Cells expressing each of the alpha-2-adrenergic receptors alone were incubated with various compounds and a receptor-mediated growth response was measured. The compound's activity is expressed as its relative efficacy compared to a standard full agonist.
(§2) The RSAT assay measures a receptor-mediated loss of contact inhibition that results in selective proliferation of receptor-containing cells in a mixed population of confluent cells. The increase in cell number is assessed with an appropriate transfected marker gene such as β-galactosidase, the activity of which can be easily measured in a 96-well format. Receptors that activate the G protein, Gq, elicit this response. Alpha2 receptors, which normally couple to Gi, activate the RSAT response when coexpressed with a hybrid Gq protein that has a Gi receptor recognition domain, called Gq/i5.
(§3) NIH-3T3 cells are plated at a density of 2×10^6 cells in 15 cm dishes and maintained in Dulbecco's modified Eagle's medium supplemented with 10% calf serum. One day later, cells are cotransfected by calcium phosphate precipitation with mammalian expression plasmids encoding p-SV-β-galactosidase (5-10 μg), receptor (1-2 μg) and G protein (1-2 μg). 40 μg salmon sperm DNA may also be included in the transfection mixture. Fresh media is added on the following day and 1-2 days later, cells are harvested and frozen in 50 assay aliquots. Cells are thawed and […] added to […] aliquots of various concentrations of drugs in triplicate in 96-well dishes. Incubations continue 72-96 hr at 37° C. After washing with phosphatebuffered saline, β-galactosidase enzyme activity is determined by adding 200 μl of the chromogenic substrate (consisting of 3.5 mM o-nitrophenyl-β-D-galactopyranoside and 0.5% nonidet P-40 in phosphate buffered saline), incubating overnight at 30° C. and measuring optical density at 420 nm. The absorbance is a measure of enzyme activity, which depends on cell number and reflects a receptor-mediated cell proliferation. The EC50 and maximal effect of each drug at each alpha2 receptor is determined. The efficacy or intrinsic activity is calculated as a ratio of the maximal effect of the drug to the maximal effect of a standard full agonist for each receptor subtype. Brimonidine, also called UK14304, is used as the standard agonist for the alpha2A, alpha2B, and alpha2C receptors.
(§4) The compounds activity is expressed as its relative efficacy compared to a standard full agonist.

alpha2A receptor = target: T2, alpha2A receptor (Homo sapiens, UniProt P08913); assay: RSAT assay, alpha 2A; assay type: cell-based; settings: RSAT; for EC50: NIH-3T3 cells, NA = not active, read-out: EC50 (nM) Alpha 2A; for (rel. efficacy) Alpha 2A: ratio of maximal effect to standard full agonist brimonidine (UK14304)
T2 sequence (P08913 1-465): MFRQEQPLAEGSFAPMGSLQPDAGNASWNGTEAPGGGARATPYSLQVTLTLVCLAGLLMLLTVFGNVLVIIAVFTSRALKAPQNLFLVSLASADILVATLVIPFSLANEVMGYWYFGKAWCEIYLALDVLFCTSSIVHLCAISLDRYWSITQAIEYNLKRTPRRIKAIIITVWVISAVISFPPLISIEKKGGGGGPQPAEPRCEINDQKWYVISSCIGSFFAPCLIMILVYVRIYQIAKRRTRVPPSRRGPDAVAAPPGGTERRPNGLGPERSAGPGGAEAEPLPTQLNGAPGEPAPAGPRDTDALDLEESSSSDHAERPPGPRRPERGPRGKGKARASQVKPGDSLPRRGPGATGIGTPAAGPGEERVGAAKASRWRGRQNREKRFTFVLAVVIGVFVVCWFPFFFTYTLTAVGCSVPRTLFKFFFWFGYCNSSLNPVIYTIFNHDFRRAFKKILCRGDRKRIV
Protocol: as §1, §2, §3, §4

alpha2C receptor = target: T3, alpha2C receptor (Homo sapiens, UniProt P18825); assay: RSAT assay, alpha 2C; assay type: cell-based; settings: for (rel. efficacy) Alpha 2C: ratio of maximal effect to standard full agonist brimonidine (UK14304)
T3 construct: expressed in transfected cells; host or cells: NIH-3T3
T3 sequence (P18825 1-462): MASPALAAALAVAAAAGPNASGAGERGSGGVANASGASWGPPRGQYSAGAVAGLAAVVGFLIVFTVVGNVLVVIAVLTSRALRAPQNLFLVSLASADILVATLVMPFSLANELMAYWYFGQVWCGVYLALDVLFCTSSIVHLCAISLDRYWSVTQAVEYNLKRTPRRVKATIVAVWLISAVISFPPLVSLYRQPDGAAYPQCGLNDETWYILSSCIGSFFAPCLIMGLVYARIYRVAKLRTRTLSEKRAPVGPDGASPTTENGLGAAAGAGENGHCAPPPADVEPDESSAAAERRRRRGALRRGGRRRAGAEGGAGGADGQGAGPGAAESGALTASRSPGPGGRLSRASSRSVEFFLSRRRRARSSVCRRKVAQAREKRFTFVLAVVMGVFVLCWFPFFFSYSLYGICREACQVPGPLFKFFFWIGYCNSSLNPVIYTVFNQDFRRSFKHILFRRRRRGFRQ
Protocol: as §1, §2, §3, §4

[1] = test system: patient with moderate post-herpetic neuralgia pain; assay: Treating post-herpetic neuralgia pain in a patient; assay type: in vivo; settings: tablet twice daily as needed
Source text: A tablet including N-(2-methoxybenzyl)-4,5-dihydrooxazol-2-amine is delivered taken by the patient twice daily as needed for the pain.
II. […] A tablet including N-(2-methoxybenzyl)-4,5-dyhydrothizaol-2-amine is delivered taken by the patient twice daily as needed for the pain.
III. […] A tablet including N-(3-chloro-2-fluorobenzyl)-4,5-dihydrooxazol-2-amine is delivered taken by the patient twice daily as needed for the pain.

[2] = test system: diabetic patient with moderate neuropathy in the right leg; assay: Treating diabetic peripheral neuropathy in a patient; assay type: in vivo; settings: topical composition on the right leg twice daily; two months later
Protocol: A topical composition including N-(2-methoxybenzyl)-4,5-dihydrooxazol-2-amine is administered on the right leg of the patient twice daily.
III. […] A topical composition including N-(2-methoxybenzyl)-4,5-dyhydrothizaol-2-amine is administered on the right leg of the patient twice daily.
III. […] A topical composition including N-(3-chloro-2-fluorobenzyl)-4,5-dihydrooxazol-2-amine is administered on the right leg of the patient twice daily.

[3] = test system: patient with moderate intraocular pressure in the right eye; assay: Treating elevated intraocular pressure in a patient; assay type: in vivo; settings: ophthalmic composition to the right eye twice daily; two months later
Source text: An ophthalmic composition including N-(2-methoxybenzyl)-4,5-dihydrooxazol-2-amine is delivered to the right eye of the patient twice daily.
II. […] An ophthalmic composition including N-(2-methoxybenzyl)-4,5-dyhydrothizaol-2-amine is delivered to the right eye of the patient twice daily.
III. […] An ophthalmic composition including N-(3-chloro-2-fluorobenzyl)-4,5-dihydrooxazol-2-amine is delivered to the right eye of the patient twice daily.

[4] = RSAT, NIH-3T3 cells, NA = not active, read-out: EC50 (nM) Alpha 2C

| SMILES | EC50 (alpha2B receptor; RSAT, NIH-3T3 cells, NA = not active, read-out: EC50 (nM) Alpha 2B) | (rel. efficacy) Alpha 2B (alpha2B receptor; RSAT) | EC50 (alpha2A receptor) | (rel. efficacy) Alpha 2A (alpha2A receptor) | EC50 (alpha2C receptor; [4]) | (rel. efficacy) Alpha 2C (alpha2C receptor; RSAT) | EC50 (alpha2B receptor) | EC50 (alpha2C receptor) | patient-reported pain [1] | neuropathy of the patient [2] | intraocular pressure of the patient [3] |
| --- | --- | --- | --- | --- | --- | --- | --- | --- | --- | --- | --- |
| Clc1ccc(Br)c(CNC2=NCCS2)c1 | 250 nM | 1.04 | 2270 nM | 0.45 | 855 nM | 0.69 | – | – | – | – | – |
| Cc1cccc(CNC2=NCCS2)c1Cl | – | 1.27 | 281 nM | 0.4 | – | 1.03 | 11 nM | 32 nM | – | – | – |
| COc1c(Br)cccc1CNC1=NCCS1 | – | 1.1 | 621 nM | 0.55 | 109 nM | 0.81 | 31 nM | – | – | – | – |
| Fc1c(I)cccc1CNC1=NCCS1 | – | 1.0 | 589 nM | 1.07 | – | 1.05 | 6 nM | 88 nM | – | – | – |
| COc1ccccc1CNC1=NCCO1 [N-(2-methoxybenzyl)-4,5-dihydrooxazol-2-amine] | – | – | – | – | – | – | – | – | reduction of pain | reduction neuropathy | normal intraocular pressure |
| COc1ccccc1CNC1=NCCS1 [N-(2-methoxybenzyl)-4,5-dihydrothiazol-2-amine] | – | – | – | – | – | – | – | – | reduction of pain | reduction neuropathy | normal intraocular pressure |
| Fc1c(Cl)cccc1CNC1=NCCO1 [N-(3-chloro-2-fluorobenzyl)-4,5-dihydrooxazol-2-amine] | – | – | – | – | – | – | – | – | reduction of pain | reduction neuropathy | normal intraocular pressure |
